pEC50: −log10 of the molar value. Like-named read-outs stand apart in the source and are kept apart here. Marks after values point to notes of the source that are not given here.
Legend:
[1] = Cytotoxicity: inhibition of growth of uninfected MDBK cells (TetraColor One MTT); assay type: cell-based, bovine; details: bovine
Protocol: (§1) Also, after addition of the compound according to the present invention to medium containing cells not infected with any virus, the percent inhibition of cell growth of the compound according to the present invention is measured. For example, with the use of a reagent for viable cell measurement, such as a water soluble MTT solution TetraColor One™ (Seikagaku Corporation), the percent inhibition of cell growth can be measured.
(§2) At the same time, for measurement of toxicity of each compound, the compound was added to a microtiter plate containing MDBK cells not infected with the virus as described above, followed by 3 days of culture. After 3 days of culture, TetraColor One™ was added to a microtiter plate at 10 μl per well. After 1 hour of incubation at 37° C., the microtiter plate was applied to a microplate reader and then absorbance was measured at 450 nm/690 nm.
(§3) The percent inhibition (%) of cell growth was calculated by the following formula based on the thus obtained absorbance: […]

[2] = tested on: Bovine viral diarrhea virus (BVDV) Nose strain; test: Anti-BVDV activity: inhibition of viral replication in BVDV-infected MDBK cells (LDH in culture supernatant); assay type: cell-based; details: for pEC50: Bovine viral diarrhea virus isolates and strains, 72 h, read-out: EC50 (50% effective concentration, 50% inhibition of viral replication); for Selectivity index (CC50/EC50): CC50 in uninfected MDBK cells / EC50 against BVDV; for anti-BVDV effects (in words): summary statements on the tables
Source text: The antiviral activity of the compound according to the present invention can be evaluated by a method that involves infecting cells with a virus, adding the compound according to the present invention to medium before, after, or simultaneously with infection, and then measuring the percent inhibition of viral replication. Specifically, such percent inhibition of viral replication can be evaluated by measuring the activity of lactate dehydrogenase (LDH) in the culture supernatant of the virus-infected cells using an LDH cytotoxicity detection kit (Takara Biochemicals), for example. LDH is an enzyme that exists in the cytoplasm and is generally almost never released extracellularly because of the presence of cell membrane. Meanwhile, when cells are infected with a virus and then the virus replicated within the cells, infected cells die. As a result of viral infection, cell membrane is disrupted and then LDH is released into the culture supernatant. […] That is, the degree of cell disruption due to viral replication and the LDH level in the culture supernatant show extremely good positive correlation. Therefore, the antiviral activity (inhibition of viral replication) of the compound according to the present invention can be measured via quantitative determination of LDH in the culture supernatant.
Furthermore, the selectivity index (CC50/EC50) is calculated. The higher the selectivity index, the higher the effects of inhibiting viral replication alone without damaging cells. Therefore, the antiviral activity of the compound according to the present invention can be evaluated using the selectivity index as an index. Also, the antiviral activity of the compound according to the present invention can be evaluated by assay (e.g., Western blot analysis, ELISA, or flow cytometry) for measuring the viral antigen level in virus-infected cells cultured in medium containing the compound according to the present invention or assay (e.g., Northern blot analysis or quantitative RT-PCR) for measuring the virus gene (RNA) level in virus-infected cells.
1) Cell: Madin-Darby bovine kidney cell (hereinafter, referred to as “MDBK cell”);
2) Virus: Bovine viral diarrhea virus (hereinafter, referred to as “BVDV”) Nose strain;
MDBK cells (2×10^5 cells/ml) were infected with BVDV at an MOI of 0.01 (multiplicity of infection, MOI=0.01). Next, a solution containing BVDV-infected cells was dispensed into a 96-well flat bottom microtiter plate at 100 μl per well, simultaneously with the addition of a compound subjected to 5-fold serial dilution, followed by 3 days of culture at 37° C. (5% CO2).
After 3 days of culture, 50 μl of the cultured supernatant was collected and then transferred to another microtiter plate and then 50 μl of the reaction solution of an LDH cytotoxicity detection kit was added. After 30 minutes of culture at room temperature, the microtiter plate was applied to a microplate reader (BioRad Laboratories) and then absorbance was measured at 490 nm/690 nm.
The percent inhibition (%) of viral replication was calculated by the following formula based on the thus obtained absorbance:
100−[(ODT)V−(ODC)M]/[(ODC)V−(ODC)M]×100(%)

[3] = tested on: Madin-Darby bovine kidney cell (MDBK cell); test: Cytotoxicity: inhibition of growth of uninfected MDBK cells (TetraColor One MTT); assay type: cell-based
Protocol: as §1, §2, §3

[4] = BVDV-infected MDBK cells, MOI 0.01, 3 days of culture, LDH readout, mean of at least two experiments
[5] = read-out: CC50 (50% cytotoxicity concentration, 50% inhibition of cell growth), uninfected MDBK cells, 3 days of culture, MTT readout, mean of at least two experiments

Compound	CC50 at 3 days [1]	pEC50 [2, 4]	Selectivity index (CC50/EC50) [2]	anti-BVDV effects (in words) [2]	CC50 ([3]; bovine, 3 days)	other results
c1ccc2c(c1)[nH]c1ccncc12 [γ-Carboline]	41 µM	5.68	19.5	selective anti-BVDV effects		
Cn1c2ccccc2c2cnccc21 [Compound 5]		6.59	111.5	strongest activity and the highest selectivity	29 µM	
c1ccc2c(c1)[nH]c1ncccc12 [α-Carboline, reference compound]		4.04	>1.1	lower than those of β-carboline and γ-carboline	> 100 µM	
c1ccc2c(c1)[nH]c1cccnc12 [δ-Carboline, reference compound]		< 4.00		lower than those of β-carboline and γ-carboline	> 100 µM	
Cc1ccc2c(c1)c1cnccc1n2C [Compound 15]	7.7 µM	6.46	22.0			
Cc1ccc2[nH]c3ccncc3c2c1 [Compound 8]		5.52	4		12 µM	
Cc1cccc2c1c1cnccc1n2C [Compound 16]	6.4 µM	6.54	22.1			
Cc1cccc2c3cnccc3n(C)c12 [Compound 13]	11 µM	6.52	36.7			
c1ccc2c(c1)[nH]c1ccccc12 [Carbazole, reference compound]						CC50 [3, 5]: > 100 µM; pEC50 ([2]; MDBK): < 4.00
NC(=O)c1ncn([C@@H]2O[C@H](CO)[C@@H](O)[C@H]2O)n1 [Ribavirin, 1-β-D-ribofuranousyl-1,2,4-triazole-3-carboxamide, reference compound]	15.1 µM	5.41		selective anti-BVDV effects		
Cn1ccc2nc3ccccc3c-2c1 [Compound 2]		5.37	15.1		65 µM	
Cc1nccc2[nH]c3ccccc3c12 [Compound 1]		6.24	16.7		9.7 µM	
Cc1ccc2c3cnccc3n(C)c2c1 [Compound 14]	40 µM	6.52	133.3			
Cc1cccc2[nH]c3ccncc3c12 [Compound 9]		5.92	13.3		16 µM	
Cc1cccc2c1[nH]c1ccncc12 [Compound 6]		5.77	14.1		24 µM	
Cc1cc2[nH]c3ccccc3c2cn1 [Compound 3]		5.66	31.8		70 µM	
Interferon-α						EC50 (50% effective concentration, 50% inhibition of viral replication) ([2]; interferon-α, BVDV-infected MDBK cells, MOI 0.01, 3 days, LDH readout): 5.5* IU/well
c1ccc2c(c1)[nH]c1cnccc12 [β-Carboline]			10.2	selective anti-BVDV effects		CC50 at 3 days ([1]; uninfected MDBK cells, 3 days of culture, MTT readout, mean of at least two experiments): 87 µM; pEC50 ([2]; MDBK): 5.07
Cc1nccc2c1c1ccccc1n2C [Compound 10]	5.2 µM	6.70	26.0			
Cc1ccc2c(c1)[nH]c1ccncc12 [Compound 7]		5.96	21.8		24 µM	
Cc1cc2c(cn1)c1ccccc1n2C [Compound 11]	21 µM	7.21	338.7	activity equivalent to that of compound 12 and the highest selectivity		
c1ccc2c(c1)Cc1ccccc1-2 [Fluorene, reference compound]		< 4.00			> 100 µM	
c1ccc2c(c1)oc1ccccc12 [Dibenzofuran, reference compound]						CC50 [3, 5]: > 100 µM; pEC50 ([2]; MDBK): < 4.00
Cc1cncc2c1[nH]c1ccccc12 [Compound 4]		6.26	38.2		21 µM	
Cc1cncc2c3ccccc3n(C)c12 [Compound 12]	9.6 µM	7.37	223.2	strongest activity and high selectivity		

From US20100256379A1, “ANTI-VIRAL AGENT CONTAINING HETEROCYCLIC AROMATIC COMPOUND AS ACTIVE INGREDIENT” (Kagoshima University, priority 2007, published 2010)
